Test results from patent US20160311886A1, “Constructs Binding to Phosphatidylserine and Their Use in Disease Treatment and Imaging” (Board of Regents, The University of Texas System, priority 2005, published 2016).
Where two headings read alike, the source gives them in different places.

Assays:
MDA-MB-231 tumor vessels = experiment: Double staining of orthotopic MDA-MB-231 tumors; assay type: in vivo, mouse; conditions: biotinylated reagent i.v., one hour
Procedure: In further studies, mice bearing MDA-MB-231 tumors (0.3-0.7 cm^3 in volume) were injected intravenously with 50 μg of biotinylated 9D2, control IgM or annexin V (six mice per group). Biotinylated reagents were first incubated with streptavidin-Cy3 conjugate, washed in PBS, then incubated with MECA 32 antibody followed by FITC-tagged anti-rat IgG secondary antibody. Single images, taken with appropriate filters for Cy3 (red) and FITC (green) fluorescence respectively, were captured by digital camera and transferred to a computer. […] The same method was used to analyze tumors from mice injected with control rat IgM or saline. The percentage of vessels with localized 9D2 or annexin V was calculated as follows: mean number of yellow vessels per field divided by mean number of green (total) vessels multiplied by 100.
Double staining studies were also performed in which mice bearing orthotopic MDA-MB-231 breast tumors were injected intravenously with biotinylated 9D2 antibody, biotinylated control IgM or biotinylated annexin V. One hour later, the mice were exsanguinated, and their tumors were removed and frozen sections were cut. The tumor sections were then stained with Cy3-conjugated streptavidin to detect the biotinylated proteins and with FITC-conjugated MECA32 to detect vascular endothelium. […]

[1] = Reactivity with plastic-immobilized phospholipid; conditions: read-out: EC50 of binding
Procedure: (§1) Phospholipids were dissolved in n-hexane to a concentration of 50 μg/ml. 100 μl of this solution was added to wells of 96-well microtiter plates. After evaporation of the solvent in air, the plates were blocked for 2 h with 10% fetal bovine serum diluted in DPBS containing 2 mM Ca^2+ (binding buffer).
(§2) 9D2 antibody or annexin V were diluted in the binding buffer in the presence of 10% serum at an initial concentration of 6.7 nM. Serial two-fold dilutions were prepared in the plates (100 μl per well). The plates were then incubated for 2 h at room temperature. The plates were washed and the 9D2 and annexin V were detected by goat anti-rat IgM conjugated to HRP and rabbit anti-human annexin V followed by goat anti-rabbit IgG conjugated to HRP (all diluted 1:1000), respectively. Secondary reagents were detected by using chromogenic substrate OPD followed by reading plates at 490 nm using a microplate reader (Molecular Devices, Palo Alto, Calif.).
(§3) The specificity of the 9D2 antibody binding was validated by using control rat IgM of irrelevant specificity (Pharmingen, San Diego, Calif.). The specificity of annexin V binding to phospholipids, which is Ca^2+-dependent, was determined by diluting the reagent in the DPBS containing 5 mM EDTA. Additional negative controls consisted of washing the plates with the binding buffer containing 0.2% of a detergent Tween 20. This treatment extracts lipids, thus removing the phospholipid that was absorbed to plastic. Neither 9D2 antibody nor annexin V bound to detergent-washed plates.

[2] = Reactivity of 9D2 and annexin V with plastic-immobilized phospholipids (panel); assay type: binding
Procedure: as §1, §2, §3

human β2GPI = target: T1, human β2GPI (Homo sapiens, UniProt P02749); experiment: Anti-hβ2GPI ELISA; assay type: binding
T1 construct: Human β2GPI (hβ2GP1) was purified from human plasma essentially as described previously; from tissue; host or cells: pooled human plasma
T1 sequence (P02749 20-345): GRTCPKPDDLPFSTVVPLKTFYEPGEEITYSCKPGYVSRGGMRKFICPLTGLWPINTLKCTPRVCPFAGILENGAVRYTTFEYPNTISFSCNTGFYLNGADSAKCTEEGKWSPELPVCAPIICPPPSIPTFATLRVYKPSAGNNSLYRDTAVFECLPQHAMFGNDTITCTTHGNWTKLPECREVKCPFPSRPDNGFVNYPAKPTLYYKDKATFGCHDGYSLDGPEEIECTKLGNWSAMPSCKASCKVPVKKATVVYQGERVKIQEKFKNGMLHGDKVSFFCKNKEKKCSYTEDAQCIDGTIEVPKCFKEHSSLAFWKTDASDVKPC
Procedure: The assay was performed as described above with the following modifications. hβ2GPI, nicked hβ2GPI, or recombinant hβ2GPI peptides were coated on 96-well Immunlon 2HB microtiter plates overnight at a concentration of 10 μg/ml. Plates were then blocked in 1% OVA for 1 hr. at room temperature. […] Plates were incubated for 1 hr. at 37° C. and antibody binding was detected. All ELISA studies were performed at least three times.

human CMV AD169 = experiment: CMV-GFP spread by fluorescent microscopy
[3] = system: orthotopic MDA-MB-435 and MDA-MB-231 tumors; experiment: Macrophage infiltration during 3G4 tumor treatment; assay type: in vivo, mouse; conditions: 100 μg i.p. three times a week for 2-3 weeks
Procedure: Groups of 8-10 female SCID mice were injected subcutaneously with 2×10^7 L540 cells or orthotopically with 1×10^7 MDA-MB-435 or MDA-MB-231 cells. BALB/c mice were injected subcutaneously with 1×10^6 Meth A cells. Tumors were allowed to grow to an average diameter of 0.8-1 cm (L540), 0.6-0.7 cm (MDA-MB-435), 0.5-0.7 cm (MDA-MB-231), or <0.1 cm (Meth A). […] Animals were monitored three times a week for tumor size and body weight. Mice were sacrificed when tumors in control mice reached a diameter of 1.5-2 cm.

Pichinde virus = assay type: cell-based
MDA-MB-435 breast tumors = experiment: 3G4 and chimeric 3G4 tumor treatment; assay type: in vivo, mouse; conditions: MD-MBA-435s; IP 800 μg day 15, 200 μg every two to three days, 400 μg day 35
Procedure: Tumors were also established using MD-MBA-435s cells and treated as described above. […] The treatment of large L540 tumors, MDA-MB-231 and MD-MBA-435s tumor cells for 60 days was also effective. The antibodies caused tumor vascular injury, thrombosis and necrosis and retarded tumor growth, with no evidence of toxicity.
MD-MBA-435s lucerifase cells were obtained from Dr. Angels Sierra Jimenez, Barcelona, Spain and were grown in 10% DMEM. Mice were injected with tumor cells as described as above, and at 2 weeks post injection, the tumors were measured and the volume recorded. […] Treatment was initiated by IP injection (800 μg) at day 15 and continued with injections of 200 μg every two to three days until the final injection of 400 μg at day 35. Tumor volumes and mouse body weights were measured on injection days. Mice were sacrificed and perfused with saline for 12 minutes. The organs and tumor were removed, snap-frozen in liquid nitrogen and the tumor sectioned for immunohistochemistical analysis.
Groups of 8-10 female SCID mice were injected subcutaneously with 2×10^7 L540 cells or orthotopically with 1×10^7 MDA-MB-435 or MDA-MB-231 cells. BALB/c mice were injected subcutaneously with 1×10^6 Meth A cells. […] Animals were monitored three times a week for tumor size and body weight. […]

Molecule	MECA 32 positive vessels that bound the reagent (MDA-MB-231 tumor vessels)	EC50 ([1]; CL) [nM]	EC50 ([1]; PA) [nM]	EC50 ([1]; PC) [nM]	EC50 ([1]; PE) [nM]	EC50 ([1]; PG) [nM]	EC50 ([1]; PI) [nM]	EC50 ([1]; PS) [nM]	EC50 ([1]; SM) [nM]	binding to heparin, heparan sulfate or double or single stranded DNA [2]	order of strength of binding to phospholipids in ELISA [2]	effect of EDTA on binding to anionic phospholipids ([2]; 5 mM EDTA)	binding to hβ2GPI coated plate (human β2GPI)	cell-to-cell spread (human CMV AD169; 100 μg/ml and 50 μg/ml)	entry of the virus into the cells (human CMV AD169; day 3, 50 and 100 μg/ml)	viral spread in monolayer (human CMV AD169; day 9, 100 μg/ml and 50 μg/ml, control wells approximately 80% infected)	leukocyte binding and infiltration [3]	infected cells (Pichinde virus)	tumor growth vs control (MDA-MB-435 breast tumors)
Annexin V: High affinity PS binding ligand; natural ligand binding anionic phospholipids and PE	About 40%	0.13	0.1	> 8	0.1	0.25	0.05	0.1	> 8	did not bind detectably	PI>PS=PE=PA=CL>PG	abolished							
3G4: Mouse IgG3 kappa monoclonal antibody to PS and anionic phospholipids; binding mediated by β2-glycoprotein I (antibody, listed as Mus musculus) VH: MGWTWIFILILSVTTGVHSEVQLQQSGPELEKPGASVKLSCKASGYSFTGYNMNWVKQSHGKSLEWIGHIDPYYGDTSYNQKFRGKATLTVDKSSSTAYMQLKSLTSEDSAVYYCVKGGYYGHWYFDVWGAGTTVTVSSATTTAPSVYPLVP VL: MDMRAPAQILGFLLLLFPGTRCDIQMTQSPSSLSASLGERVSLTCRASQDIGSSLNWLQQGPDGTIKRLIYATSSLDSGVPKRFSGSRSGSDYSLTISSLESEDFVDYYCLQYVSSPPTFGAGTKLELKRADAAPTVFIFGRIP													bound strongly	complete inhibition of cell-to-cell spread	does not appear to significantly inhibit the entry of the virus	restricted to the original singly-infected cell	caused mononuclear leukocytes to bind to the tumor vascular endothelium and infiltrate into the tumor interstitium	about one in about a hundred cells	effectively retarded tumor growth
